From patent US12331054B2, “Perk inhibiting imidazolopyrazine compounds” (HiberCell, Inc., priority 2019, dated 2025)

What was measured:
[1] = molecular target: Recombinant human EIF2AK3 (PERK) catalytic domain (amino acids 536-1116) (Homo sapiens (Human), UniProt Q9NZJ5); assay: PERK In Vitro Activity Assay (isolated), TR-FRET kinase assay; details: isolated PERK enzyme, 1.5 μM ATP, read-out: Biochemical IC50
Procedure, shortened: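 Recombinant PERK catalytic domain was incubated with 100–200 nM GFP-eIF2a substrate in 50 mM HEPES pH 7.5, 10 mM MgCl2, 1.0 mM EGTA and 0.01% Brij-35 for 45 min at room temperature. After a 10 mM EDTA stop, 2 nM Tb-anti-phospho-eIF2a was added for 90 min, and IC50 was fitted from TR-FRET ratios by 4-parameter logistic regression.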

[2] = tested on: eIF2α in HEK293-EGFP-eIF2α cells; assay: PERK Cellular Assay (HEK293-EGFP-eIF2α cells, tunicamycin-induced ER stress, TR-FRET); type: cell-based; details: tunicamycin 2 hours
Procedure, shortened: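 Cells pre-incubated with inhibitor 30 min at 37 °C, then ER stress induced with […] tunicamycin for 2 h. TR-FRET read on lysates; ratio normalized to DMSO control as percent inhibition over a 10-point, 3-fold dilution series; IC50 from 4-parameter logistic fit.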

Chain of Recombinant human EIF2AK3 (PERK) catalytic domain (amino acids 536-1116) (Q9NZJ5 536-1116): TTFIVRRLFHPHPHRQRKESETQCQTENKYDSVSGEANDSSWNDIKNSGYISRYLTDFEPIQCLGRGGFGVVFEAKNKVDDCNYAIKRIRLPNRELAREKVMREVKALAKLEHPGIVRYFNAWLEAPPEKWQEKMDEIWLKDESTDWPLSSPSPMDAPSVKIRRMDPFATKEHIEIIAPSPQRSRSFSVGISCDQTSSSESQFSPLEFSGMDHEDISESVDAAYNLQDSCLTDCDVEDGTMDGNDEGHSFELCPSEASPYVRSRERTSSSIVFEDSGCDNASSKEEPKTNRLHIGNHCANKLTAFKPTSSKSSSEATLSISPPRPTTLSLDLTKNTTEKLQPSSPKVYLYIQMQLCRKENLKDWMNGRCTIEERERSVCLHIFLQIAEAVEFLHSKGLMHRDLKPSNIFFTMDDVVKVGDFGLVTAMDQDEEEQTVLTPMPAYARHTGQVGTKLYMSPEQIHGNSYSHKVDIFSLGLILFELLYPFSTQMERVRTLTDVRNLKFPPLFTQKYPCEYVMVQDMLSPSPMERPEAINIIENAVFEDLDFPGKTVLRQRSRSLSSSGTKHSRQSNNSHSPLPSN

IC50 [1]	Compound	IC50 [2]	IC50 ([2]; 2 h)
1 to 25 nM	Cc1c(-c2nc(C)n3c(C)cnc(N)c23)ccc(NC(=O)C(O)c2cccc(F)c2)c1F (centres unmarked) [Example 169, N-(4-(8-amino-3,5-dimethyl-imidazo[1,5-a]pyrazin-1-yl)-2-fluoro-3-methyl-phenyl)-2-(3-fluorophenyl)-2-hydroxy-acetamide]	1 to 25 nM	
1 to 25 nM	[2H]C([2H])([2H])c1nc(-c2ccc(NC(=O)C(O)c3cccc(F)c3)cc2C)c2c(N)ncc(C(F)(F)F)n12 (centres unmarked) [Example 30, N-[4-[8-amino-3-(trideuteriomethyl)-5-(trifluoromethyl)imidazo[1,5-a]pyrazin-1-yl]-3-methyl-phenyl]-2-(3-fluorophenyl)-2-hydroxy-acetamide]	1 to 25 nM	
1 to 25 nM	[2H]C([2H])([2H])c1nc(-c2ccc(NC(=O)C(O)c3cccc(Cl)c3)c(F)c2F)c2c(N)ncc(Cl)n12 (centres unmarked) [Example 144, N-[4-[8-amino-5-chloro-3-(trideuteriomethyl)imidazo[1,5-a]pyrazin-1-yl]-2,3-difluoro-phenyl]-2-(3-chlorophenyl)-2-hydroxy-acetamide]	51 to 100 nM	
1 to 25 nM	[2H]C([2H])([2H])c1nc(-c2ccc(NC(=O)C(O)c3cc(F)cc(F)c3)cc2C)c2c(N)ncc(Cl)n12 (centres unmarked) [Example 48, N-[4-[8-amino-5-chloro-3-(trideuteriomethyl)imidazo[1,5-a]pyrazin-1-yl]-3-methyl-phenyl]-2-(3,5-difluoro-phenyl)-2-hydroxy-acetamide]		1 to 25 nM
1 to 25 nM	[2H]C([2H])([2H])c1nc(-c2ccc(NC(=O)C(O)c3cccc(C(F)(F)F)c3)cc2F)c2c(N)ncc(C)n12 (centres unmarked) [Example 95, N-[4-[8-amino-5-methyl-3-(trideuteriomethyl)imidazo[1,5-a]pyrazin-1-yl]-3-fluoro-phenyl]-2-hydroxy-2-[3-(trifluoromethyl)phenyl]acetamide]	51 to 100 nM	
1 to 25 nM	[2H]C([2H])([2H])c1nc(-c2ccc(NC(=O)C(O)c3cccc(Cl)c3)cc2C)c2c(N)nc(C)cn12 (centres unmarked) [Example 34, N-[4-[8-amino-6-methyl-3-(trideuteriomethyl)imidazo[1,5-a]pyrazin-1-yl]-3-methyl-phenyl]-2-(3-chlorophenyl)-2-hydroxy-acetamide]	26 to 50 nM	
1 to 25 nM	[2H]C([2H])([2H])c1nc(-c2ccc(NC(=O)C(O)c3cccc(F)c3)c(F)c2F)c2c(N)ncc(C(F)(F)F)n12 (centres unmarked) [Example 134, N-[4-[8-amino-3-(trideuteriomethyl)-5-(trifluoromethyl)imidazo[1,5-a]pyrazin-1-yl]-2,3-difluoro-phenyl]-2-(3-fluorophenyl)-2-hydroxy-acetamide]	1 to 25 nM	
1 to 25 nM	Cc1cnc(N)c2c(-c3ccc(NC(=O)C(O)c4cccc(C(F)(F)F)c4)cc3F)nc(C)n12 (centres unmarked) [Example 92, N-(4-(8-amino-3,5-dimethylimidazo [1,5-a]pyrazin-1-yl)-3-fluoro-phenyl)-2-hydroxy-2-(3-(trifluoromethyl)phenyl)acetamide]	1 to 25 nM	
26 to 50 nM	[2H]C([2H])([2H])c1nc(-c2ccc(NC(=O)C(O)c3cc(F)cc(C(F)(F)F)c3)c(F)c2F)c2c(N)ncc(Cl)n12 (centres unmarked) [Example 165, N-[4-[8-amino-5-chloro-3-(trideuteriomethyl)imidazo[1,5-a]pyrazin-1-yl]-2,3-difluoro-phenyl]-2-[3-fluoro-5-(trifluoromethyl)phenyl]-2-hydroxy-acetamide]	101 to 250 nM	
1 to 25 nM	[2H]C([2H])([2H])c1nc(-c2ccc(NC(=O)C(O)c3cccc(F)c3)cc2C)c2c(N)ncc(C)n12 (centres unmarked) [Example 10, N-(4-(8-amino-5-methyl-3-(trideuteriomethyl)imidazo[1,5-a]pyrazin-1-yl)-3-methylphenyl)-2-(3-fluorophenyl)-2-hydroxyacetamide]		1 to 25 nM
1 to 25 nM	[2H]C([2H])([2H])c1nc(-c2ccc(NC(=O)C(O)c3cc(F)cc(C(F)(F)F)c3)cc2C)c2c(N)ncc(Cl)n12 (centres unmarked) [Example 57, N-[4-[8-amino-5-chloro-3-(trideuteriomethyl)imidazo[1,5-a]pyrazin-1-yl]-3-methyl-phenyl]-2-[3-fluoro-5-(trifluoromethyl)phenyl]-2-hydroxy-acetamide]	26 to 50 nM	
51 to 100 nM	Cc1cc(NC(=O)C(O)c2cccc(F)c2)c(F)cc1-c1nc(C)n2c(C)cnc(N)c12 (centres unmarked) [Example 64, N-(4-(8-amino-3,5-dimethylimidazo [1,5-a]pyrazin-1-yl)-2-fluoro-5-methylphenyl)-2-(3-fluorophenyl)-2-hydroxy-acetamide]	501 to 1000 nM	
1 to 25 nM	Cc1cc(NC(=O)C(O)c2cccc(F)c2)ccc1-c1nc(C)n2c(Cl)cnc(N)c12 (centres unmarked) [Example 29, N-(4-(8-amino-5-chloro-3-methylimidazo[1,5-a]pyrazin-1-yl)-3-methylphenyl)-2-(3-fluorophenyl)-2-hydroxyacetamide]	26 to 50 nM	
1 to 25 nM	Cc1cccc(C(O)C(=O)Nc2ccc(-c3nc(C)n4c(C)cnc(N)c34)c(F)c2)c1 (centres unmarked) [Example 89, N-(4-(8-amino-3,5-dimethylimidazo [1,5-a]pyrazin-1-yl)-3-fluoro-phenyl)-2-hydroxy-2-(m-tolyl)acetamide]	51 to 100 nM	
1 to 25 nM	[2H]C([2H])([2H])c1nc(-c2ccc(NC(=O)C(O)c3cccc(F)c3)nc2C)c2c(N)nc(C)cn12 (centres unmarked) [Example 170, N-[5-[8-amino-6-methyl-3-(trideuteriomethyl)imidazo[1,5-a]pyrazin-1-yl]-6-methyl-2-pyridyl]-2-(3-fluorophenyl)-2-hydroxy-acetamide]	101 to 250 nM	
1 to 25 nM	Cc1cnc(N)c2c(-c3ccc(NC(=O)C(O)c4cccc(F)c4)cc3OC(F)(F)F)nc(C)n12 (centres unmarked) [Example 127, N-(4-(8-amino-3,5-dimethyl-imidazo[1,5-a]pyrazin-1-yl)-3-(trifluoromethoxy)phenyl)-2-(3-fluorophenyl)-2-hydroxyacetamide]	101 to 250 nM	
1 to 25 nM	[2H]C([2H])([2H])c1nc(-c2ccc(NC(=O)C(O)c3cccc(C(F)(F)F)c3)cc2F)c2c(N)ncc(C(F)(F)F)n12 (centres unmarked) [Example 98, N-[4-[8-amino-3-(trideuteriomethyl)-5-(trifluoromethyl)imidazo[1,5-a]pyrazin-1-yl]-3-fluoro-phenyl]-2-hydroxy-2-[3-(trifluoromethyl)phenyl]acetamide]	26 to 50 nM	
1 to 25 nM	[2H]C([2H])([2H])c1nc(-c2ccc(NC(=O)C(O)c3cc(F)cc(F)c3)cc2F)c2c(N)ncc(Cl)n12 (centres unmarked) [Example 108, N-[4-[8-amino-5-chloro-3-(trideuteriomethyl)imidazo[1,5-a]pyrazin-1-yl]-3-fluoro-phenyl]-2-(3,5-difluoro-phenyl)-2-hydroxy-acetamide]		1 to 25 nM
1 to 25 nM	[2H]C([2H])([2H])c1nc(-c2ccc(NC(=O)C(O)c3cccc(C(F)(F)F)c3)nc2C)c2c(N)nc(C)cn12 (centres unmarked) [Example 176, N-[5-[8-amino-6-methyl-3-(trideuteriomethyl)imidazo[1,5-a]pyrazin-1-yl]-6-methyl-2-pyridyl]-2-hydroxy-2-[3-(trifluoromethyl)phenyl]acetamide]	51 to 100 nM	
1 to 25 nM	Cc1cnc(N)c2c(-c3ccc(NC(=O)C(O)c4cccc(F)c4)cc3)nc(C)n12 (centres unmarked) [Example 69, N-(4-(8-amino-3,5-dimethylimidazo [1,5-a]pyrazin-1-yl)phenyl)-2-(3-fluorophenyl)-2-hydroxyacetamide]	1 to 25 nM	
1 to 25 nM	[2H]C([2H])([2H])c1nc(-c2ccc(NC(=O)C(O)c3cc(F)cc(F)c3)c(F)c2F)c2c(N)ncc(C(F)(F)F)n12 (centres unmarked) [Example 158, N-[4-[8-amino-3-(trideuteriomethyl)-5-(trifluoromethyl)imidazo[1,5-a]pyrazin-1-yl]-2,3-difluoro-phenyl]-2-(3,5-difluorophenyl)-2-hydroxy-acetamide]	1 to 25 nM	
1 to 25 nM	[2H]C([2H])([2H])c1nc(-c2ccc(NC(=O)C(O)c3cc(F)cc(C(F)(F)F)c3)cc2F)c2c(N)ncc(C(F)(F)F)n12 (centres unmarked) [Example 112, N-[4-[8-amino-3-(trideuteriomethyl)-5-(trifluoromethyl)imidazo[1,5-a]pyrazin-1-yl]-3-fluoro-phenyl]-2-[3-fluoro-5-(trifluoromethyl)phenyl]-2-hydroxy-acetamide]	1 to 25 nM	
1 to 25 nM	Cc1c(-c2nc(C)n3c(C)cnc(N)c23)ccc(NC(=O)C(O)c2cccc(F)c2)c1F (centres unmarked) [Example 168, N-(4-(8-amino-3,5-dimethyl-imidazo[1,5-a]pyrazin-1-yl)-2-fluoro-3-methyl-phenyl)-2-(3-fluorophenyl)-2-hydroxy-acetamide]	251 to 500 nM	
26 to 50 nM	[2H]C([2H])([2H])c1nc(-c2ccc(NC(=O)C(O)c3cccc(C(F)(F)F)c3)c(F)c2F)c2c(N)ncc(Cl)n12 (centres unmarked) [Example 153, N-[4-[8-amino-5-chloro-3-(trideuteriomethyl)imidazo[1,5-a]pyrazin-1-yl]-2,3-difluoro-phenyl]-2-hydroxy-2-[3-(trifluoromethyl)phenyl]acetamide]	101 to 250 nM	
1 to 25 nM	CCc1cc(NC(=O)C(O)c2cccc(F)c2)ccc1-c1nc(C)n2c(C)cnc(N)c12 (centres unmarked) [Example 67, N-(4-(8-amino-3,5-dimethylimidazo [1,5-a]pyrazin-1-yl)-3-ethylphenyl)-2-(3-fluorophenyl)-2-hydroxy-acetamide]	101 to 250 nM	
